Two compounds from patent US7863337B2, “Use of triacontanol in preparation of medicaments for treatment of cancers” (priority 2006, dated 2011) can be followed below.

Data set [1] has as its system murine hepatoma H22. The experiment in a line: Curative effect test against murine hepatoma H22 by gavaging a thixotropic oil suspension of triacontanol. In kind it is in vivo, mice. How it is done:
(§1) Experiment method: […] of the tumor models of murine hepatoma H22, intestinal cancer C26 and Lewis lung cancer by hypodermic inoculating in the murine in vivo
(§2) A cancer cell suspension is prepared from the tumor source by homogenate technique, and then is inoculated subcutaneously under the armpit. After 24 hours, medication is administrated according to a predesigned scheme, and finally, an inhibition rate statistic against the tumor is obtained by comparing with a negative control group.

In data set [2] the test system is murine hepatoma H22. The experiment in a line: Curative effect test against murine hepatoma H22 (inoculated under the armpit) by gavaging a triacontanol oil agent. The format is in vivo, mice. How it is done: as §1, §2
A short description of data set [3]: Effect to the thymus index and spleen index of murine by gavaging a triacontanol oil agent. In kind it is in vivo. The settings on record: tumor-bearing mice.
In another data set the test system is Lewis lung cancer. The experiment in a line: Curative effect test against murine Lewis lung cancer (hypodermically inoculated) by intravenous administration of a triacontanol emulsion. In kind it is in vivo, mice. The settings on record: 7 mg/kg/d. How it is done: as §1, §2
The next data set concerns intestinal cancer C26. Briefly: Curative effect test against murine intestinal cancer C26 (hypodermically inoculated) by gavaging a 352B oil agent. In kind it is in vivo, mice. The settings on record: 7 mg/kg/d. How it is done:
as §1, §2

The mark [4] stands for this setting: 100 mg/kg (middle dosage), gavage.
The mark [5] stands for this setting: 150 mg/kg (high dosage), gavage.
Setting [6] is: ipx2, vs negative control group.

Consider `CCCCCCCCCCCCCCCCCCCCCCCCCCCCCCO` [352B, triacontanol], for which, in the data set on murine hepatoma H22 [1] (summary of the above tests (H22, Lewis lung cancer, C26)), the “antitumor effect (summary in words)” value is “prominent antitumor effect”. Further, the “Weight (g) After administration” value in the data set on murine hepatoma H22 [2] (50 mg/kg (low dosage), gavage) is recorded as 23.51 ± 1.99 g; in the data set with murine hepatoma H22 [2] (setting [4]), 23.20 ± 2.86 g; in the data set on murine hepatoma H22 [2] (setting [5]), 23.52 ± 2.36 g. The “Weight of the tumor” value with murine hepatoma H22 [2] (50 mg/kg (low dosage), gavage) was found to be 0.72 ± 0.38 g; with murine hepatoma H22 [2] (setting [4]), 0.57 ± 0.28 g; with murine hepatoma H22 [2] (setting [5]), 0.49 ± 0.25 g. Moreover, the “Inhibition rate (%)” value was 48.13% in the data set on murine hepatoma H22 [2] (50 mg/kg (low dosage), gavage, compared with the menstruum control group); 58.95% in the data set with murine hepatoma H22 [2] (100 mg/kg (middle dosage), gavage, compared with the menstruum control group); 64.59% in the data set with murine hepatoma H22 [2] (150 mg/kg (high dosage), gavage, compared with the menstruum control group). Moreover, the Spleen index (mg/10 g body weight) in data set [3] (50 mg/kg (low dosage), gavage) worked out at 67.1 ± 13.7 mg/10 g body weight; in data set [3] (setting [4]) it was 62.1 ± 17.5 mg/10 g body weight; in data set [3] (setting [5]), 65.7 ± 12.3 mg/10 g body weight. Also, the Thymus index (mg/10 g body weight) was 45 ± 6.72 mg/10 g body weight in data set [3] (50 mg/kg (low dosage), gavage); 38.7 ± 8.08 mg/10 g body weight in data set [3] (setting [4]); 37.7 ± 6.73 mg/10 g body weight in data set [3] (setting [5]). Also, the “Weight of spleen” value in data set [3] (50 mg/kg (low dosage), gavage) stood at 153.52 ± 35.62 mg; in data set [3] (setting [4]), 139.98 ± 41.62 mg; in data set [3] (setting [5]), 151.26 ± 32.16 mg. Besides, the “Weight of thymus” value was 102.14 ± 15.90 mg in data set [3] (50 mg/kg (low dosage), gavage); 86.87 ± 16.44 mg in data set [3] (setting [4]); 86.86 ± 16.14 mg in data set [3] (setting [5]). The “effect to the important immune organ (thymus and spleen)” value in data set [3] (summary in words) is recorded as “hasn't obvious effect to the important immune organ”.
On to `N.N.[Cl][Pt][Cl]` [DDP], for which the “Weight of the animal (g) at last” value in the data set with Lewis lung cancer (ipx2) is recorded as 19.2/20.9 g; in the data set on murine hepatoma H22 [1] (7 mg/kg/d, igx2) it was 21.4/25.4 g; in the data set with intestinal cancer C26 (ipx2), 19.1/24.1 g. For the same compound, the “Weight of the tumor (g) X ± SD” value in the data set on Lewis lung cancer (ipx2) stood at 0.278 ± 0.14 g; in the data set with murine hepatoma H22 [1] (7 mg/kg/d, igx2) it was 1.269 ± 0.13 g; in the data set with intestinal cancer C26 (ipx2) it was 0.346 ± 0.13 g. Also, the Inhibition rate (%) with Lewis lung cancer (setting [6]) is 89.00%; with murine hepatoma H22 [1] (7 mg/kg/d, igx2, vs negative control group), 91.0%; in the data set on murine hepatoma H22 [2] (0.001 mg/kg, compared with the NS control group) it was 79.76%; with intestinal cancer C26 (setting [6]), 86.99%. Further, in the data set on murine hepatoma H22 [2] (0.001 mg/kg), the “Weight of the tumor” value is 0.31 ± 0.19 g. In data set [3] (0.001 mg/kg), this compound came in with a Spleen index (mg/10 g body weight) of 46 ± 8.18 mg/10 g body weight. The same compound registered a Thymus index (mg/10 g body weight) in data set [3] (0.001 mg/kg) of 30.7 ± 8.06 mg/10 g body weight. The “Weight of spleen” value in data set [3] (0.001 mg/kg) is on record as 88.90 ± 27.79 mg. Moreover, the “Weight of thymus” value in data set [3] (0.001 mg/kg) is given as 59.61 ± 22.45 mg.
